Reference: patent US10851096B2, “Aryl and heteroaryl amides for use as anti-proliferative, anti-thrombotic, and anti-viral agents” (Rutgers, The State University of New Jersey, priority 2016, dated 2020)

How the values were obtained:
hAxl/IFN-γR1 = molecular target: T1, hAxl/IFN-γR1 (Homo sapiens, UniProt P30530); test: hAxl/IFN-γR1 CHO reporter cell line assay, Gas6-induced activation (pSTAT1 immunoblot); type: cell-based; conditions: for apparent EC50, anti-Axl activity: Axl reporter system; for IC50: dose-response, FIG. 2A/2B, read-out: IC50, Axl-inhibitory activity on hAxl/IFN-γR1 reporter cell lines
T1 construct: containing human Axl extracellular domains and transmembrane and intracellular domains of human IFN-γR1; human IFN-γR1 transmembrane and intracellular domains (fusion partner); expressed in transfected cells
T1 sequence (P30530 26-451 limits assumed): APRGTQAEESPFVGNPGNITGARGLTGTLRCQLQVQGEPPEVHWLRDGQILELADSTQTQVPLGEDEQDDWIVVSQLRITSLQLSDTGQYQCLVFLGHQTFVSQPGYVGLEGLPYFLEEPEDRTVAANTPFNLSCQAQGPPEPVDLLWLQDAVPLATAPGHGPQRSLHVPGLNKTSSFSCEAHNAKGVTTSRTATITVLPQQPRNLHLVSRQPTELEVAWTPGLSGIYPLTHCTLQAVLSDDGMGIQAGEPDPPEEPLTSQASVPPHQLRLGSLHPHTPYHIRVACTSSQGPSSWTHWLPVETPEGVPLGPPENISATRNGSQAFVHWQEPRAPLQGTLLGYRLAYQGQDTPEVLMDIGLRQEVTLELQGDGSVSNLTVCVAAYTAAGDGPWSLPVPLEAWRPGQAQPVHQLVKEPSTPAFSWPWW
Description: Stable HEK 293 cells secreting human Gas6 (clone 7.4.1) were allowed to achieve 70% confluence in a 10-cm plate. The complete medium with 10% FBS was then changed into serum free media in the presence of 10 µg/mL vitamin K1 (Phytonadione injectable emulsion from Hospira). After 72 hours, the Gas6 conditioned medium was collected, and validated for the presence of Gas6 and γ-carboxylation (by immunoblot) and activity of Gas6 (via activation of pSTAT1 in hAxl/γR1 cells).
Stable hAxl/IFN-γR1 CHO reporter cell lines (containing human Axl extracellular domains and transmembrane and intracellular domains of human IFN-γR1) were serum starved for 5 hrs±small molecule inhibitors and then stimulated with human Gas6 conditioned media±small molecule inhibitors for 30 minutes. For H1299 human non-small cell lung carcinoma and MDA-MB-231 human breast adenocarcinoma cell lines, the cells were serum starved overnight±small molecule inhibitors and stimulated with human Gas6 conditioned media±small molecule inhibitors for 30 minutes. Whole cell lysates of hAxl/IFN-γR1, H1299 and MDA-MB-231 cells were prepared using HNTG buffer (20 mM HEPES, pH 7.5, 150 mM NaCl, 10% glycerol, 1% Triton X-100, 1 mM PMSF, 1 mM Na3VO4, 10 mM Na2MoO4, 1 mM EDTA, 10 mM NaF and 20 μg/mL aprotinin). The resulting lysates were resolved on SDS-PAGE gel and immunoblotted with respective antibodies.
Immunoblot data were obtained within a linear range of exposure, and intensities were quantified by ImageJ. The levels of hAxl/IFN-γR1 cells lines activation were measured by pSTAT1 whereas the levels of H1299 and MDA-MB-231 cell lines activation were measured by pAxl signal intensities. Blots were normalized to intensities of respective β-actin or GAPDH protein loading controls. The levels of pSTAT1 or pAxl activation induced by Gas6±small molecule inhibitors were plotted as a fold of enhancement or reduction over intensities induced by Gas6 alone.

Axl/Gas6 interaction = molecular target: T2, Axl/Gas6 interaction (Homo sapiens, UniProt P30530); test: Pull-down competitive inhibition assay of Gas6 binding to His-tagged soluble Axl; conditions: His-tagged soluble Axl Ig1/Ig2 with recombinant Gas6
T2 construct: His-tagged soluble Axl Ig1/Ig2 recombinant proteins; Amgen (Gas6 only)
Description: 400 nM His tagged-sAxl were co-incubated with increasing amounts of compound 1A (0, 5, 10 or 20 μM) in a 50 μl reaction mixture of Tris-Nacl Buffer (20 mM Tris.HCl, 150 mM NaCl, pH 8.0), and incubated at 37° C. for 60 minutes, with intermittent mixing. Thereafter, equal amount of hGas6 (100 nM) was added to each tube and incubated at 37° C. for another 60 minutes, with intermittent mixing. To each of the tubes, 1 μg of 6×-His antibody was added and the mixture was incubated overnight at 4° C. on a rotary mixer. After overnight incubation, 30 μl of Protein A/G PLUS agarose beads (Santa Cruz) were added into each of the tubes and incubated for an hour at 4° C. The mixtures were centrifuged and the pellets were then washed four times in ice-cold Nonidet P-40 buffer (20 mM Tris.HCl, 150 mM NaCl, pH 8.0 and 1% Nonidet P-40). Pellets were re-suspended in 30 μl of 2× sample loading dye and boiled for 5 min at 95° C. The samples were fractionated by SDS-PAGE and bound Gas6 was analyzed by immunoblotting.

H1299 cells = test: Gas6-inducible motility through transwell pore, H1299; type: cell-based, human; conditions: pretreatment of H1299 cells
[1] = system: H1299 lung cancer xenograft; test: Mouse xenograft study, human H1299 lung cancer; type: in vivo; conditions: for growth of tumor (tumor volume): 100 mg/kg IP
Description: 500,000 H1299 cells in 100 μl of PBS were injected subcutaneously into the right flank of 4-6 week NOD/SCIDg mice. Once tumors were palpable, the mice were randomized into 3 groups, each group had 6 mice: control mice were treated with vehicle (DMSO) intraperitoneally (IP) and the treatment groups with compound 1I (day 1, day 2, day 3 and day 4) or with compound 1Q (day 1, day 2, day 3, day 4, day 7 and day 8) at a dose of 100 mg/kg IP. Similar studies were conducted on compound 1Q dosed at 300 mg/kg in mice. Tumor size and body weights were measured three times a week and the tumor volume calculated.
Finally, based on the promising in vitro and cell culture experiments showing anti-Axl activity of certain compounds, the in vivo efficacies of compound 1I and compound 1Q using a murine SCID/human H1299 lung cancer xenograft model was investigated (FIG. 7A-E). As indicated, SCID mice were subcutaneously injected with 250,000 tumor cells in the hind flanks with human H1299 cells until palpable tumors were present. Subsequently, mice were injected every two days with vehicle, compound 1I or compound 1Q at a concentration of 100 mg/kg for up to 2 weeks. […] Taken together, these studies support the further development of TAM Ig1 inhibitors as anti-cancer therapeutics (FIGS. 7A-E).

[2] = Pharmacokinetics in mice (half-life, bioavailability); type: in vivo, mouse; conditions: for half-life: mouse, in vivo, read-out: half-life (t1/2) (converted)
[3] = Venous thromboembolism (VTE) mouse model; type: in vivo; conditions: 200 mg/kg qd IP for three days
[4] = Cancer associated VTE mouse model; type: in vivo; conditions: 200 mg/kg qd IP for three days

Compound	remaining activity at 10 µM (hAxl/IFN-γR1) [%]	apparent EC50, anti-Axl activity (hAxl/IFN-γR1)	IC50 (hAxl/IFN-γR1) [µM]	inhibition of Axl/Gas6 interaction in vitro (Axl/Gas6 interaction)	Gas6-inducible motility through an 8 μm pore (H1299 cells)	growth of tumor (tumor volume) [1]	tumor growth (volume) ([1]; 300 mg/kg IP)	bioavailability [2]	half-life [2] [h]	reduction in thrombus size [3]	reduction in thrombus size [4] [%]
Cc1cc(CSc2ccccc2C(=O)NCCNc2ccc(C(F)(F)F)cc2[N+](=O)[O-])on1 [1Q]	10	low micro-molar range	1.25	able to inhibit in vitro the Axl/Gas6 interaction in a dose-dependent manner	strongly suppressed	significantly suppressed growth of tumor	suppress tumor growth	good bioavailability	~8	approximately 37.3%	45
Cc1noc(C)c1CSc1ccccc1C(=O)N1CCN(c2cccc(C(F)(F)F)c2)CC1 [1I]	20	low micro-molar range	1.15	able to inhibit in vitro the Axl/Gas6 interaction in a dose-dependent manner	strongly suppressed	significantly suppressed growth of tumor		good bioavailability	~8		
